According to patent US9370189B2, “Controlling Pseudomonas aeruginosa persister cells with GM-CSF” (priority 2012, dated 2016):

What was measured:
[1] = system: planktonic cells of PDO300; assay: Synergistic effect of GM-CSF, tobramycin and alginate lyase on planktonic cells of PDO300; type: cell-based, Pseudomonas aeruginosa
Excerpt: This Example describes the use of alginate lyase as an enzyme to break down the extra alginate in order to understand the effect of the presence of alginate in PDO300 on the GM-CSF and antibiotic treatment.
To improve the effects of GM-CSF and antibiotics on the alginate overproducing PDO300, alginate lyase was used as an enzyme to break down the extra alginate. Alginate lyase is an enzyme which depolymerizes the alginate polymer by […] reaction. The alginate lyase used in the experiment was alginate lyase from Flavobacterium sp. (Sigma, catalog no. A1603-100MG). The experimental method was similar as mentioned above for the combined effect of GM-CSF and antibiotic. The alginate lyase was added as 0.05 mg/mL.
In brief, the experiment was performed in exponential phase with an optical density at 600 nm (OD600) of 0.3 to 0.4. After preparing an overnight culture of the tested strain in 25 ml LB medium, a subculture was prepared with an OD600 of 0.01 in 50 mL LB medium. The subculture was incubated at 37° C. with shaking at 200 rpm for 3-4 h, till OD600 of 0.3 to 0.4 was reached. The exponential phase subculture was then divided equally into two centrifuge tubes. The subcultures were washed twice with 0.85% NaCl buffer by vortexing and then centrifuging at 4° C., 8000 rpm for 10 min each time. The washed subcultures were resuspended in 25 mL 0.85% NaCl buffer and vortexed gently for 1 min. One of the subculture was selected for isolation of persisters by adding 200 μg/mL ciprofloxacin. After adding the antibiotic, the subculture was incubated at 37° C. with shaking at 200 rpm for 3.5 h. The other subculture was used to quantify the total number of viable cells.
For testing the direct impact of GM-CSF on the total viable cells, 1 mL of the subculture was added in 24 microcentrifuge tubes; 12 were control and the other 12 were GM-CSF treatment samples. In the treatment samples, GM-CSF was added to a concentration of 2.43 pg/mL. The control samples were supplemented with the same concentration of PBS and BSA as present in 2.43 pg/mL GM-CSF samples. […]

[2] = system: whole cells of P. aeruginosa; assay: GM-CSF binding assay to bacterial whole cells (slot blot immunoblotting); design: species or system Pseudomonas aeruginosa; details: PBS, room temperature, 2 h, anti-rhGM-CSF immunoblot (FIG. 21)
Experimental: This Example describes experiments conducted to determine the capability of GM-CSF to bind to whole cells of P. aeruginosa and E. coli. In brief, bacteria harvested at stationary phases of growth were washed with PBS and adjusted to OD600 of 0.4 with PBS to ensure that an equal amount of cells was used for all GF-CSF binding tests. Suspensions of bacteria (10^6 CFU) were then incubated with and without different amount of recombinant human GM-CSF (rhGM-CSF, R&D systems) in a 40 μL volume at room temperature for 2 hours. After incubation, the cell suspension was centrifuged to separate supernatant (comprising buffer and unbound GM-CSF) and pellet (comprising cell and bound GM-CSF, if any), followed by the addition of 10 mM EDTA and boiling for 30 minutes to inactivate bacterial alkaline phosphatase activity. As control, PBS buffer with GM-CSF were processed in the similar manner. All the samples were then applied to Slot Blot (BioRad) for immunoblotting experiments. Anti-rhGMCSF developed in mice (Human GM-CSF MAb, Mouse IgG1, R&D system) was used as first antibody; Alkaline Phosphatase conjugated with Anti-mouse IgG was used to detect the binding of GM-CSF with BCIP/NBT (Promega) as substrates.

GM-CSF: granulocyte macrophage-colony stimulating factor, a cytokine secreted by macrophages; recombinant human GM-CSF (R&D systems) in binding tests
persisters changed by ([1]; planktonic PDO300, 2.43 pg/mL GM-CSF and 50 μg/mL tobramycin): −63.6±5.4%
persisters changed by ([1]; planktonic PDO300, 2.43 pg/mL GM-CSF, 50 μg/mL tobramycin and 0.05 mg/mL Alginate lyase): −74.1±3.3%
persisters changed by ([1]; planktonic cells (Example on PDO300; sentence prints PAO1), 2.43 pg/mL GM-CSF alone): −15.0±4.2%
binding to whole cells [2]: does bind
